# Tested on: patients with advanced solid tumors
# Test: First-in-human phase 1 dose-escalation study: safety, DLTs, adverse events
# Format: in vivo
# Description: This multicenter first-in-human dose-escalation phase 1 study (clinicaltrials.gov identifier: NCT03272256) was designed to determine the MTD or RP2D and to evaluate the safety and tolerability of IM156. Secondary endpoints included PK characteristics, efficacy assessment (objective response rate [ORR], disease control rate [DCR], duration of response [DoR] and progression-free survival [PFS]). Furthermore, exploratory objectives included identification and profiling of IM156 metabolites, evaluations of exploratory PD markers of IM156, and evaluations of any potential relationship between putative biomarkers and safety/efficacy parameters of IM156. The study was conducted in accordance with Good Clinical Practice, the International Council for Harmonisation, and guidelines governing clinical study conduct and the ethical principles originating from the Declaration of Helsinki. The study was approved by each Institutional Review Board and patients provided written informed consent. Patients were enrolled at three sites in South Korea.
# The initial dose and schedule of IM156 was chosen based on animal toxicology studies. […] IM156 was administered in the fasted state, with no food for at least 2 h before and 1 h after dosing.
# Three DLT-evaluable patients were enrolled at each dose level. If there were no DLTs or other prohibitive adverse events (AEs), the Safety Committee was allowed to recommend escalation to the next highest dose level. If 1 DLT occurred in the first 3 DLT-evaluable patients, enrollment in that cohort was expanded to an additional 3 DLT-evaluable patients; if ≥ 2 DLTs were reported in a cohort, that dose was considered above the MTD.
# Safety was assessed through vital signs, weight, laboratory assessments, physical examinations, electrocardiogram, and reporting of AEs as graded by the National Cancer Institute’s Common Terminology Criteria for Adverse Events v4.03 (NCI-CTCAE).
# DLTs were defined as the following AEs if they were attributed as related to IM156: asymptomatic grade 4 neutropenia lasting for ≥ 5 days; febrile neutropenia, regardless of grade; grade 4 thrombocytopenia or grade 3 thrombocytopenia with bleeding; any grade ≥ 3 non-hematologic AE (except grade 3 hypertension and grade 3 nausea, vomiting or diarrhea for which proper measures for prevention and treatment were not implemented, and alopecia); blood lactate levels > 5 mmol; grade ≥ 2 AE prohibiting dosing of IM156 for ≥ 21 continuous days except for alterations in serum calcium or phosphorus levels. The safety analysis includes all patients who received at least one dose of study drug.
# The safety population was defined as all patients who received at least one dose of IM156. The PK population was not defined in the protocol but included all patients with sufficient PK data to perform adequate PK modeling. The efficacy population included all patients who underwent at least one tumor imaging assessment while receiving IM156. Safety was assessed using descriptive statistics (e.g., DLTs, AEs, laboratory tests, physical examination, 12-lead ECG). The incidence and number of events were reported for the DLTs observed in Cycle 1 per dose group. […] Adverse events and TRAEs were standardized with the System Organ Class and the Preferred Term using the Medical Dictionary for Regulatory Activities v23.0. In addition, TEAEs, serious adverse events (SAEs), TEAE severity, and TEAEs leading to withdrawal were presented by dose group. Efficacy data were to be presented by Waterfall and Swim Lane plots. Time to event endpoints (e.g., DoR, PFS) were determined using Kaplan–Meier estimations with the median value for each endpoint summarized.
# [1] = DL1 100 mg orally every other day (n=3)
# [2] = DL2 200 mg orally every other day (n=3)
structure (smiles),measurement,setting,value
NC(=Nc1ccc(OC(F)(F)F)cc1)N=C(N)N1CCCC1 [IM156],TEAE Psychiatric disorders grade 1,[1],0
same,TEAE Psychiatric disorders grade 2,[1],0
same,TEAE Psychiatric disorders grade 3,[1],0
same,TEAE Psychiatric disorders grade 4,[1],0
same,TEAE Purpura grade 1,[1],0
same,TEAE Purpura grade 2,[1],0
same,TEAE Purpura grade 3,[1],0
same,TEAE Purpura grade 4,[1],0
same,TEAE Urinary retention grade 1,[1],0
same,TEAE Urinary retention grade 2,[1],0
same,TEAE Urinary retention grade 3,[1],0
same,TEAE Urinary retention grade 4,[1],0
same,TEAE Urinary tract disorder grade 1,[1],0
same,TEAE Urinary tract disorder grade 2,[1],0
same,TEAE Urinary tract disorder grade 3,[1],0
same,TEAE Urinary tract disorder grade 4,[1],0
same,"TEAE Abdominal pain, grade 2",DL2 200 mg QOD (n=3),1
same,"TEAE Alanine aminotransferase increased, grade 1",DL2 200 mg QOD (n=3),1
same,"TEAE Asthenia, grade 1",DL2 200 mg QOD (n=3),1
same,"TEAE Cough, grade 1",DL2 200 mg QOD (n=3),1
same,"TEAE Diarrhoea, grade 2",DL2 200 mg QOD (n=3),1
same,"TEAE Ileus, grade 3",DL2 200 mg QOD (n=3),1
same,"TEAE Nausea, grade 1",DL2 200 mg QOD (n=3),1
same,"TEAE Pleural effusion, grade 2",DL2 200 mg QOD (n=3),1
same,"TEAE Pyrexia, grade 1",DL2 200 mg QOD (n=3),1
same,"TEAE Vomiting, grade 1",DL2 200 mg QOD (n=3),2
same,"TRAE Abdominal Pain, > G3 (patients)","DL2 200 mg QOD oral, N = 3",0
same,"TRAE Abdominal Pain, All grades (patients)","DL2 200 mg QOD oral, N = 3",0
same,"TRAE Blood Lactic Acid increased, > G3 (patients)","DL2 200 mg QOD oral, N = 3",0
same,"TRAE Blood Lactic Acid increased, All grades (patients)","DL2 200 mg QOD oral, N = 3",0
same,"TRAE Constipation, > G3 (patients)","DL2 200 mg QOD oral, N = 3",0
same,"TRAE Constipation, All grades (patients)","DL2 200 mg QOD oral, N = 3",0
same,"TRAE Decreased appetite, > G3 (patients)","DL2 200 mg QOD oral, N = 3",0
same,"TRAE Decreased appetite, All grades (patients)","DL2 200 mg QOD oral, N = 3",1
same,"TRAE Diarrhoea, > G3 (patients)","DL2 200 mg QOD oral, N = 3",0
same,"TRAE Diarrhoea, All grades (patients)","DL2 200 mg QOD oral, N = 3",1
same,"TRAE Fatigue, > G3 (patients)","DL2 200 mg QOD oral, N = 3",0
same,"TRAE Fatigue, All grades (patients)","DL2 200 mg QOD oral, N = 3",0
same,"TRAE Insomnia, > G3 (patients)","DL2 200 mg QOD oral, N = 3",0
same,"TRAE Insomnia, All grades (patients)","DL2 200 mg QOD oral, N = 3",1
same,"TRAE Nausea, > G3 (patients)","DL2 200 mg QOD oral, N = 3",0
same,"TRAE Nausea, All grades (patients)","DL2 200 mg QOD oral, N = 3",1
same,"TRAE Vomiting, > G3 (patients)","DL2 200 mg QOD oral, N = 3",0
same,"TRAE Vomiting, All grades (patients)","DL2 200 mg QOD oral, N = 3",2
same,TEAE Adrenal insufficiency grade 1,[2],0
same,TEAE Adrenal insufficiency grade 2,[2],0
same,TEAE Adrenal insufficiency grade 3,[2],0
same,TEAE Adrenal insufficiency grade 4,[2],0
same,TEAE Anaemia grade 1,[2],0
same,TEAE Anaemia grade 2,[2],1
same,TEAE Anaemia grade 3,[2],0
same,TEAE Anaemia grade 4,[2],0
same,TEAE Appendicitis perforated grade 1,[2],0
same,TEAE Appendicitis perforated grade 2,[2],0
same,TEAE Appendicitis perforated grade 3,[2],0
same,TEAE Appendicitis perforated grade 4,[2],0
same,TEAE Back pain grade 1,[2],0
same,TEAE Back pain grade 2,[2],0
same,TEAE Back pain grade 3,[2],0
same,TEAE Back pain grade 4,[2],0
same,TEAE Cystitis grade 1,[2],0
same,TEAE Cystitis grade 2,[2],0
same,TEAE Cystitis grade 3,[2],0
same,TEAE Cystitis grade 4,[2],0
same,TEAE Dry skin grade 1,[2],0
same,TEAE Dry skin grade 2,[2],0
same,TEAE Dry skin grade 3,[2],0
same,TEAE Dry skin grade 4,[2],0
same,TEAE Flank pain grade 1,[2],0
same,TEAE Flank pain grade 2,[2],1
same,TEAE Flank pain grade 3,[2],0
same,TEAE Flank pain grade 4,[2],0
same,TEAE Hypertension grade 1,[2],0
same,TEAE Hypertension grade 2,[2],0
same,TEAE Hypertension grade 3,[2],0
same,TEAE Hypertension grade 4,[2],0
same,TEAE Hypotension grade 1,[2],0
same,TEAE Hypotension grade 2,[2],0
same,TEAE Hypotension grade 3,[2],0
same,TEAE Hypotension grade 4,[2],0
same,TEAE Insomnia grade 1,[2],0
same,TEAE Insomnia grade 2,[2],1
same,TEAE Insomnia grade 3,[2],0
same,TEAE Insomnia grade 4,[2],0
same,TEAE Pain in extremity grade 1,[2],0
same,TEAE Pain in extremity grade 2,[2],0
same,TEAE Pain in extremity grade 3,[2],0
same,TEAE Pain in extremity grade 4,[2],0
same,TEAE Pruritus grade 1,[2],0
same,TEAE Pruritus grade 2,[2],0
same,TEAE Pruritus grade 3,[2],0
same,TEAE Pruritus grade 4,[2],0
same,TEAE Psychiatric disorders grade 1,[2],0
same,TEAE Psychiatric disorders grade 2,[2],1
same,TEAE Psychiatric disorders grade 3,[2],0
same,TEAE Psychiatric disorders grade 4,[2],0
same,TEAE Purpura grade 1,[2],0
same,TEAE Purpura grade 2,[2],0
same,TEAE Purpura grade 3,[2],0
same,TEAE Purpura grade 4,[2],0
same,TEAE Urinary retention grade 1,[2],0
same,TEAE Urinary retention grade 2,[2],0
same,TEAE Urinary retention grade 3,[2],0
same,TEAE Urinary retention grade 4,[2],0
same,TEAE Urinary tract disorder grade 1,[2],0
same,TEAE Urinary tract disorder grade 2,[2],0
same,TEAE Urinary tract disorder grade 3,[2],0
same,TEAE Urinary tract disorder grade 4,[2],0
same,"TEAE Cough, grade 1",DL3 400 mg QOD (n=3),1
same,"TEAE Headache, grade 2",DL3 400 mg QOD (n=3),1
same,"TEAE Nausea, grade 1",DL3 400 mg QOD (n=3),1
same,"TEAE Nausea, grade 2",DL3 400 mg QOD (n=3),2
same,"TEAE Neutrophil count decreased, grade 4",DL3 400 mg QOD (n=3),1
same,"TEAE Peripheral sensory neuropathy, grade 1",DL3 400 mg QOD (n=3),1
same,"TEAE Vomiting, grade 1",DL3 400 mg QOD (n=3),2
same,"TRAE Abdominal Pain, > G3 (patients)","DL3 400 mg QOD oral, N = 3",0
same,"TRAE Abdominal Pain, All grades (patients)","DL3 400 mg QOD oral, N = 3",0

# Reference: PMC9395488, “First-in-human study of IM156, a novel potent biguanide oxidative phosphorylation (OXPHOS) inhibitor, in patients with advanced solid tumors” (Investigational New Drugs, 2022)
